The results in this text go back to ChEMBL document CHEMBL1152986, “The macrolide resistance genes erm(B) and mef(E) are carried by Tn2010 in dual-gene Streptococcus pneumoniae isolates belonging to clonal complex CC271” (2007).

Each structure is given as a SMILES string. Converted amounts (≈) assume the structure as drawn.

The assay relates to Streptococcus pneumoniae. Description: Antibacterial activity against tetracycline-susceptible Streptococcus pneumoniae GMRS06 harboring one-nucleotide insertion stop codon in […] gene. The format is functional.

One may read the MIC as the lowest concentration that inhibits growth of the organism. Low values mean a more susceptible organism, high ones a less susceptible organism.

As for `CN(C)[C@@H]1C(O)=C(C(N)=O)C(=O)[C@@]2(O)C(O)=C3C(=O)c4c(O)cccc4[C@@](C)(O)[C@H]3C[C@@H]12` [TETRACYCLINE], the lowest concentration to inhibit growth (MIC) was 0.25 µg/mL (≈ 0.563 µM).
